Data reported in publication PMC3821045 (Synapse (New York, N.Y.), 2010).
“Also recorded” adds a separate entry of the source.

Experiments:
Type in all cases: cell-based
[1] = target: human D3 receptors expressed in CHO cells (Homo sapiens, UniProt P35462); assay: Mitogenic assay; settings: relative to quinpirole
[2] = target: human D2 receptors expressed in CHO cells (Homo sapiens, UniProt P14416); assay: Mitogenic assay; settings: relative to quinpirole
[3] = target: human D3 dopamine receptors (Homo sapiens, UniProt P35462); assay: Forskolin-dependent adenylyl cyclase inhibition assay
[4] = target: human D2 dopamine receptors (Homo sapiens, UniProt P14416); assay: as above
human D2 dopamine receptors, sequence (P14416 whole entry): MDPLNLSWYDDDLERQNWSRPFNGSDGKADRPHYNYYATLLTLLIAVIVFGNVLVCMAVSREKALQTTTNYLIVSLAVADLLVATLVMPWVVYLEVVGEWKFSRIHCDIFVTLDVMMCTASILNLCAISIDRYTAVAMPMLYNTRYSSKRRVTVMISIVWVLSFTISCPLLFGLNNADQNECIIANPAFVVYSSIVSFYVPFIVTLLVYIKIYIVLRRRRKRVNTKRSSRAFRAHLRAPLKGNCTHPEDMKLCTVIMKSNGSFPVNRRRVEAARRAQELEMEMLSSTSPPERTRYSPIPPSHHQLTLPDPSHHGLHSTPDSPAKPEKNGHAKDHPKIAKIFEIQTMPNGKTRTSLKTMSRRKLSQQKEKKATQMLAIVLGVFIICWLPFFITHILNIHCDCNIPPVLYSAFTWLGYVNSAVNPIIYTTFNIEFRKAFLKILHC

human D2 receptors expressed in CHO cells, sequence (P14416 whole entry): as above
human D3 receptors expressed in CHO cells, sequence (P35462 whole entry): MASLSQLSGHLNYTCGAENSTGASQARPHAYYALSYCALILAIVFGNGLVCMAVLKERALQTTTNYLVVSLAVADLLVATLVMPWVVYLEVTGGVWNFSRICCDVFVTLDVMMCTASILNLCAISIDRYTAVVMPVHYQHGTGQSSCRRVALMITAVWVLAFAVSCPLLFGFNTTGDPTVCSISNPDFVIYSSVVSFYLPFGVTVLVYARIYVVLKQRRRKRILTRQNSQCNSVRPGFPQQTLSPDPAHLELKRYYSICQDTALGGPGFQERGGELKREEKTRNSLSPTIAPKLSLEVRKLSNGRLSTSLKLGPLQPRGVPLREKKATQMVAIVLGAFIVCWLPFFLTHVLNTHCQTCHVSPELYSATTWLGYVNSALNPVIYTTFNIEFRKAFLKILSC
human D3 dopamine receptors, sequence (P35462 whole entry): as above

| SMILES | intrinsic efficacy in mitogenic assay (in words) [1] | intrinsic efficacy in mitogenic assay (in words) [2] | efficacy in adenylyl cyclase inhibition assay (in words) [3] | efficacy in adenylyl cyclase inhibition assay (in words) [4] |
| --- | --- | --- | --- | --- |
| O=C(NCCCCN1CCN(c2cccc(Cl)c2Cl)CC1)c1ccc(-c2ccccn2)cc1 [CJB090, N-(4-(4-(2,3-dichlorophenyl)piperazin-1-yl)butyl)-4-(pyridin-2-yl)benzamide] | partial agonist; also recorded: some activity | some activity | partial agonist | partial agonist |
| O=C(NCCCCN1CCN(c2cccc(Cl)c2Cl)CC1)c1ccc2c(c1)Cc1ccccc1-2 [NGB 2904, reference compound] | antagonist | – | antagonist | – |
| O=C(NCCCCN1CCN(c2cccc(Cl)c2Cl)CC1)c1ccc(-c2cccnc2)cc1 [PG01042, N-(4-(4-(2,3-dichlorophenyl)piperazin-1-yl)butyl)-4-(pyridin-3-yl)benzamide] | partial mitogenic agonist | partial mitogenic agonist | strong agonist; also recorded: almost full agonist | weak partial agonist |
| COc1ccccc1N1CCN(C/C=C/CNC(=O)c2ccc(-c3cccnc3)cc2)CC1 [PG 845, (E)-N-(4-(4-(2-methoxyphenyl)piperazin-1-yl)but-2-enyl)-4-(pyridin-3-yl)benzamide] | – | – | greatest efficacy | – |
| COc1ccccc1N1CCN(CCCCNC(=O)c2ccc(-c3cccnc3)cc2)CC1 [PG 848, N-(4-(4-(2-methoxyphenyl)piperazin-1-yl)butyl)-4-(pyridin-3-yl)benzamide] | antagonist | antagonist | greatest efficacy | – |
